Format in all cases: cell-based
For assay [1], the system named is Calu-1 cells. Put plainly: Anti-proliferation (viability) of NSCLC Calu-1 cells, 3 days (Table 7, FIG. 2B). The settings on record: Homo sapiens, 72 h; Calu-1 cells, 3 days, 10-point serial dilution; read-out: GI IC50 in Calu-1. Here is the method: To evaluate anti-proliferation activities of heterobifunctional compounds, NSCLC Calu-1 or ER+ breast cancer T47D cells were treated with selected heterobifunctional compounds following a 10-point serial dilution for 3 or 6 days, respectively.
To verify that heterobifunctional compound-mediated degradation is dependent on the binding to CDK4-cyclin D complex, a negative control compound, CPD-143, which is derived from active heterobifunctional compound CPD-10 was designed. CPD-143 bears the same DDB1 ligand and linker as CPD-10 but with a modified warhead to impair the binding of the control compound to CDK4.

Assay [2] addresses T1, CDK4 (Homo sapiens, UniProt P11802+Q16531). The assay is described as follows: HiBiT detection of HiBiT-tagged CDK4 protein level in MCF7 cells, 16 hours (Table 8). Set-up: expressed in transfected cells; host or cells: MCF7. The settings on record: MCF7 cells stably expressing HiBiT tagged target proteins; for activity at 0.01 µM: 10 nM, read-out: % CDK4 Relative Level (10 nM); for activity at 0.1 µM: 100 nM, read-out: % CDK4 Relative Level (100 nM). On the procedure:
HiBiT detection system quantitatively measures total amounts of HiBiT-tagged proteins using a luminescent based method. MCF7 cells stably expressing HiBiT tagged target proteins were treated with heterobifunctional compounds at indicated concentrations for 16 hours, then lysed with Nano-Glo HiBiT Lytic detection reagents.
Target sequence in this assay (P11802 whole entry): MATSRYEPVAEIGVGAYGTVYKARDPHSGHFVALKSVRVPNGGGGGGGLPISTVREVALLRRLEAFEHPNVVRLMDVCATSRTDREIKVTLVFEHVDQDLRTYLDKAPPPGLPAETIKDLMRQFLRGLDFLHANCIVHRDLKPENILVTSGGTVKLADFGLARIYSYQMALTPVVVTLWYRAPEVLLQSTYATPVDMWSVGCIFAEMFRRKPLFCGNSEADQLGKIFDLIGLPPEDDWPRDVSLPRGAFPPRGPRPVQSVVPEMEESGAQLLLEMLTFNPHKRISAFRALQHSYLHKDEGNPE
Target sequence in this assay (P24385 whole entry partner): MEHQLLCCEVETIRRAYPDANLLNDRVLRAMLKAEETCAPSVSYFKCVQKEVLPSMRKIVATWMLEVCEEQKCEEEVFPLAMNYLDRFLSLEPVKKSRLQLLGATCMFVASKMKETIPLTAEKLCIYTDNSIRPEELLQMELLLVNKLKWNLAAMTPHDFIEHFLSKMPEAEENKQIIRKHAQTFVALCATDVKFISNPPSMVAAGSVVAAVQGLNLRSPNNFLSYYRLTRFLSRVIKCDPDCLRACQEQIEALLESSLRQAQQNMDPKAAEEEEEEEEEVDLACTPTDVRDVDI
Target sequence in this assay (Q16531 2-1140 limits assumed): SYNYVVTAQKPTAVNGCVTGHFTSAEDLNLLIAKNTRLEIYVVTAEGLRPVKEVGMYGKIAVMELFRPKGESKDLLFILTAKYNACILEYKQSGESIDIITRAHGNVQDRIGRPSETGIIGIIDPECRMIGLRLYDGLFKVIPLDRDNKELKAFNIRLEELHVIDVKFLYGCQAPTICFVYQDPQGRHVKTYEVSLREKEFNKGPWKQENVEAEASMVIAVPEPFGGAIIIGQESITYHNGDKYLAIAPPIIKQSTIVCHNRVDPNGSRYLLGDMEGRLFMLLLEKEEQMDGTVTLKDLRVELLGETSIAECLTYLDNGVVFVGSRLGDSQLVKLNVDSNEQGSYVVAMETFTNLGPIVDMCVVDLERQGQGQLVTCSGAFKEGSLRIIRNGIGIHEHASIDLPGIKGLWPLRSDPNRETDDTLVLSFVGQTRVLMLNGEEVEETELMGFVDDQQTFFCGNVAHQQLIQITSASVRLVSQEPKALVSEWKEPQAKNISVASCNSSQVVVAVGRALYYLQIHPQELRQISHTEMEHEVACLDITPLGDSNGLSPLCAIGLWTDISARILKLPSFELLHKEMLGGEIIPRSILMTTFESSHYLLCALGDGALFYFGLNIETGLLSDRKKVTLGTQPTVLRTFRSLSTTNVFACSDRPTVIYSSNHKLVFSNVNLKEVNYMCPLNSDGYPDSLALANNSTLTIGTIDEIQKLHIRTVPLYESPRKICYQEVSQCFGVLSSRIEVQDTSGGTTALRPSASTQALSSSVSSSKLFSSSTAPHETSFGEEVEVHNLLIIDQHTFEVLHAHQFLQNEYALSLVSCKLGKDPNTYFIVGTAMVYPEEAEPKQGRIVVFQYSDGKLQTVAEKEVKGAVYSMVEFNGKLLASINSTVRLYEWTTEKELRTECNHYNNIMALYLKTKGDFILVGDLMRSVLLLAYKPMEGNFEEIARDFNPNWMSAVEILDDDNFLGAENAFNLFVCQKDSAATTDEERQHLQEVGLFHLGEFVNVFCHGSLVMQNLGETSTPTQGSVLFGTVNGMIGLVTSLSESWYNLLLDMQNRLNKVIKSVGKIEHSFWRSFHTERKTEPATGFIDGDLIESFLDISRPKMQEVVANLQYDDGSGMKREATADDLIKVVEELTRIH

Assay [3] concerns the target T1, CDK4. The assay is described as follows: CDK4 percentage degradation in Calu-1 cells (Table 6). Set-up: Cells that express cyclin D1-3 and CDK4/6 proteins were treated with heterobifunctional compounds; endogenous in cells; host or cells: Calu-1. The settings on record: 16 hours; for inhibition at 0.04 µM: 40 nM; for inhibition at 0.2 µM: 200 nM. Put shortly:
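Calu-1 cells exposed to heterobifunctional compounds at 40 nM or 200 nM for 16 h. Cyclin D1 and CDK4 levels measured by Western blot of RIPA lysates (BCA-normalised loading), bands quantified by densitometry and expressed as percentage degradation.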
Target sequence in this assay (P11802 2-303 limits assumed): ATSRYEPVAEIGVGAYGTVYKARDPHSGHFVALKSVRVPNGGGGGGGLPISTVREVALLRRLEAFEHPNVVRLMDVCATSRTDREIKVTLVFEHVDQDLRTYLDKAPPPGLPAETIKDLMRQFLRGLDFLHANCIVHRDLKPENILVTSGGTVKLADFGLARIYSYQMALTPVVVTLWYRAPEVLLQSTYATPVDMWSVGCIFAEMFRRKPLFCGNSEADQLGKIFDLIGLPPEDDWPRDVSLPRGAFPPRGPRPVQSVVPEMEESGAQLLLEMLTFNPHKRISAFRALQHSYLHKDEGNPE
Target sequence in this assay (P24385 whole entry partner): as the sequence (P24385 whole entry partner) above
Target sequence in this assay (Q16531 2-1140 limits assumed): as the sequence (Q16531 2-1140 limits assumed) above

Assay [4] deals with MCF7 cells. The assay is described as follows: Anti-proliferation (viability) of MCF7 cells (Table 7, FIG. 2B). The settings on record: Homo sapiens, MCF7, MCF7 cells, 3-6 days, 10-point serial dilution; read-out: GI IC50 in MCF-7.

With `CC(=O)c1c(C)c2cnc(Nc3ccc(CN4CCN(C5CCN(C(=O)C6CC(Nc7nc(NC(C)C)ccc7C(=O)Nc7ccc(N(C)C)nn7)C6)C5)CC4)cn3)nc2n(C2CCCC2)c1=O` (centres unmarked) [CPD-510, 2-((3-(3-(4-((6-((6-acetyl-8-cyclopentyl-5-methyl-7-oxo-7,8-dihydropyrido[2,3-d]pyrimidin-2-yl)amino)pyridin-3-yl)methyl)piperazin-1-yl)pyrrolidine-1-carbonyl)cyclobutyl)amino)-N-(6-(dimethylamino)pyridazin-3-yl)-6-(isopropylamino)nicotinamide], the IC50 in assay [1] is not below 50 nM.
On to `[2H]C([2H])([2H])Nc1ccc(C(=O)Nc2ccc(N(C)C)nn2)c(NC2CC3(C2)CN(C(=O)CN2CC4(C2)CN(c2ccc(Nc5ncc6c(C)c(C(C)=O)c(=O)n(C7CCCC7)c6n5)nc2)C4)C3)n1` [CPD-489, 2-((2-(2-(6-(6-((6-acetyl-8-cyclopentyl-5-methyl-7-oxo-7,8-dihydropyrido[2,3-d]pyrimidin-2-yl)amino)pyridin-3-yl)-2,6-diazaspiro[3.3]heptan-2-yl)acetyl)-2-azaspiro[3.3]heptan-6-yl)amino)-N-(6-(dimethylamino)pyridazin-3-yl)-6-((methyl-d3)amino)nicotinamide], for which the concentration for half-maximal inhibition (IC50) in assay [1] was not below 50 nM.
For the compound `[2H]C([2H])([2H])Nc1ccc(C(=O)Nc2ccc(N(C)C)nn2)c(NC2CC3(C2)CN(C(=O)CN2CCC4(CCN(c5ccc(Nc6ncc7c(C)c(C(C)=O)c(=O)n(C8CCCC8)c7n6)nc5)C4)C2)C3)n1` (centres unmarked) [CPD-384, 2-((2-(2-(7-(6-((6-acetyl-8-cyclopentyl-5-methyl-7-oxo-7,8-dihydropyrido[2,3-d]pyrimidin-2-yl)amino)pyridin-3-yl)-2,7-diazaspiro[4.4]nonan-2-yl)acetyl)-2-azaspiro[3.3]heptan-6-yl)amino)-N-(6-(dimethylamino)pyridazin-3-yl)-6-((methyl-d3)amino)nicotinamide], in assay [2], the activity at 0.01 µM lay within 55 to 85% and the activity at 0.1 µM lay within 55 to 85%. In assay [3], the inhibition at 0.04 µM is less than 30% and the inhibition at 0.2 µM is less than 30%. For the same compound, the IC50 in assay [4] is less than 50 nM.
As for `CNc1ccc(C(=O)Nc2ccc(N(C)C)nn2)c(NC2CN(CC(=O)N3CCN(Cc4ccc(Nc5ncc6c(C)c(C(C)=O)c(=O)n(C7CCCC7)c6n5)nc4)CC3)C2)n1` [CPD-513, 2-((1-(2-(4-((6-((6-acetyl-8-cyclopentyl-5-methyl-7-oxo-7,8-dihydropyrido[2,3-d]pyrimidin-2-yl)amino)pyridin-3-yl)methyl)piperazin-1-yl)-2-oxoethyl)azetidin-3-yl)amino)-N-(6-(dimethylamino)pyridazin-3-yl)-6-(methylamino)nicotinamide], the IC50 in assay [1] was not below 50 nM.
For the compound `CC(=O)c1c(C)c2cnc(Nc3ccc(N4CCN(C(C)CC(=O)N5CC6(CC(Nc7nc(NC(C)C)ccc7C(=O)Nc7cn(C)c(C8CC8)n7)C6)C5)CC4)cn3)nc2n(C2CCCC2)c1=O` (centres unmarked) [CPD-338, 2-((2-(3-(4-(6-((6-acetyl-8-cyclopentyl-5-methyl-7-oxo-7,8-dihydropyrido[2,3-d]pyrimidin-2-yl)amino)pyridin-3-yl)piperazin-1-yl)butanoyl)-2-azaspiro[3.3]heptan-6-yl)amino)-N-(2-cyclopropyl-1-methyl-1H-imidazol-4-yl)-6-(isopropylamino)nicotinamide], in assay [2], the activity at 0.01 µM was 55 to 85% and the activity at 0.1 µM lay in the range of 55 to 85%. In assay [3], this compound showed an inhibition at 0.04 µM of 30 to 50% and an inhibition at 0.2 µM of 30 to 50%. The IC50 in assay [4] was less than 50 nM.
Regarding `CC(=O)c1c(C)c2cnc(Nc3ccc(N4CCN(CCC(=O)N5CC6(CC(Nc7nc(NC(C)C)ccc7C(=O)Nc7ccc(N(C)C)nn7)C6)C5)CC4)cn3)nc2n(C2CCCC2)c1=O` [CPD-305, 2-((2-(3-(4-(6-((6-acetyl-8-cyclopentyl-5-methyl-7-oxo-7,8-dihydropyrido[2,3-d]pyrimidin-2-yl)amino)pyridin-3-yl)piperazin-1-yl)propanoyl)-2-azaspiro[3.3]heptan-6-yl)amino)-N-(6-(dimethylamino)pyridazin-3-yl)-6-(isopropylamino)nicotinamide], in assay [2], the activity at 0.01 µM lay within 55 to 85% and the activity at 0.1 µM fell in the range of 55 to 85%. For the same compound, in assay [3], the inhibition at 0.04 µM is 30 to 50% and the inhibition at 0.2 µM lay in the range of 30 to 50%. For the same compound, the half-inhibitory concentration (IC50) in assay [4] is less than 50 nM.
As for `CC(=O)c1c(C)c2cnc(Nc3ccc(N4CCN(CCC(=O)N5CC6(CC(Nc7nc(NC(C)C)ccc7C(=O)Nc7cc(C)n(C)n7)C6)C5)CC4)cn3)nc2n(C2CCCC2)c1=O` [CPD-302, 2-((2-(3-(4-(6-((6-acetyl-8-cyclopentyl-5-methyl-7-oxo-7,8-dihydropyrido[2,3-d]pyrimidin-2-yl)amino)pyridin-3-yl)piperazin-1-yl)propanoyl)-2-azaspiro[3.3]heptan-6-yl)amino)-N-(1,5-dimethyl-1H-pyrazol-3-yl)-6-(isopropylamino)nicotinamide], in assay [2], the activity at 0.01 µM was in the range of 55 to 85% and the activity at 0.1 µM lay in the range of 55 to 85%. Further, in assay [3], the inhibition at 0.04 µM is less than 30% and the inhibition at 0.2 µM is less than 30%. Further, in assay [4], the half-maximal inhibitory concentration (IC50) is less than 50 nM.
In the case of `CC(=O)c1c(C)c2cnc(Nc3ccc(N4CCC(N(C)CC(=O)N5CCC(Nc6nc(NC(C)C)ccc6C(=O)Nc6ccc(N(C)C)nn6)CC5)CC4)cn3)nc2n(C2CCCC2)c1=O` [CPD-360, 2-((1-(N-(1-(6-((6-acetyl-8-cyclopentyl-5-methyl-7-oxo-7,8-dihydropyrido[2,3-d]pyrimidin-2-yl)amino)pyridin-3-yl)piperidin-4-yl)-N-methylglycyl)piperidin-4-yl)amino)-N-(6-(dimethylamino)pyridazin-3-yl)-6-(isopropylamino)nicotinamide], in assay [2], the activity at 0.01 µM was 55 to 85% and the activity at 0.1 µM lay in the range of 55 to 85%. In assay [3], this compound registered an inhibition at 0.04 µM of less than 30% and an inhibition at 0.2 µM of less than 30%. Further, the half-inhibitory concentration (IC50) in assay [4] was less than 50 nM.
For `CC(=O)c1c(C)c2cnc(Nc3ccc(N4CCN(CC5(C(=O)N6CC7(CC(Nc8nc(NC(C)C)ccc8C(=O)Nc8ccc(N(C)C)nn8)C7)C6)CC5)CC4)cn3)nc2n(C2CCCC2)c1=O` [CPD-306, 2-((2-(1-((4-(6-((6-acetyl-8-cyclopentyl-5-methyl-7-oxo-7,8-dihydropyrido[2,3-d]pyrimidin-2-yl)amino)pyridin-3-yl)piperazin-1-yl)methyl)cyclopropane-1-carbonyl)-2-azaspiro[3.3]heptan-6-yl)amino)-N-(6-(dimethylamino)pyridazin-3-yl)-6-(isopropylamino)nicotinamide], in assay [2], the activity at 0.01 µM lay within 55 to 85% and the activity at 0.1 µM is 55 to 85%. In assay [3], this compound had an inhibition at 0.04 µM of 30 to 50% and an inhibition at 0.2 µM of 30 to 50%. For the same compound, the half-inhibitory concentration (IC50) in assay [4] was less than 50 nM.
For the compound `CC(=O)c1c(C)c2cnc(Nc3ccc(N4CCN(CCC(=O)N5CCC(Nc6nc(NC(C)C)ccc6C(=O)Nc6ccc(N(C)C)nn6)CC5)CC4)cn3)nc2n(C2CCCC2)c1=O` [CPD-301, 2-((1-(3-(4-(6-((6-acetyl-8-cyclopentyl-5-methyl-7-oxo-7,8-dihydropyrido[2,3-d]pyrimidin-2-yl)amino)pyridin-3-yl)piperazin-1-yl)propanoyl)piperidin-4-yl)amino)-N-(6-(dimethylamino)pyridazin-3-yl)-6-(isopropylamino)nicotinamide], in assay [2], the activity at 0.01 µM was in the range of 55 to 85% and the activity at 0.1 µM fell in the range of 55 to 85%. In addition, in assay [3], the inhibition at 0.04 µM was less than 30% and the inhibition at 0.2 µM is less than 30%. Also, in assay [4], the concentration for half-maximal inhibition (IC50) is less than 50 nM.
As to `CNc1ccc(C(=O)Nc2ccc(N(C)C)nn2)c(NCCCCNC(=O)CN2CCN(c3ccc(Nc4ncc5cc6n(c5n4)C4(CCCCC4)CNC6=O)nc3)CC2)n1` [CPD-642, N-(6-(dimethylamino)pyridazin-3-yl)-6-(methylamino)-2-((4-(2-(4-(6-((6′-oxo-7′,8′-dihydro-6′H-spiro[cyclohexane-1,9′-pyrazino[1′,2′:1,5]pyrrolo[2,3-d]pyrimidin]-2′-yl)amino)pyridin-3-yl)piperazin-1-yl)acetamido)butyl)amino)nicotinamide], in assay [2], the activity at 0.01 µM is 55 to 85% and the activity at 0.1 µM lay within 55 to 85%. Also, in assay [4], the IC50 was more than 100 nM.
For `CC(=O)c1c(C)c2cnc(Nc3ccc(CN4CCC(CC(=O)NC5CC6(C5)CC(Nc5nc(NC(C)C)ccc5C(=O)Nc5ccc(N(C)C)nn5)C6)C4)cn3)nc2n(C2CCCC2)c1=O` (centres unmarked) [CPD-596, 2-((6-(2-(1-((6-((6-acetyl-8-cyclopentyl-5-methyl-7-oxo-7,8-dihydropyrido[2,3-d]pyrimidin-2-yl)amino)pyridin-3-yl)methyl)pyrrolidin-3-yl)acetamido)spiro[3.3]heptan-2-yl)amino)-N-(6-(dimethylamino)pyridazin-3-yl)-6-(isopropylamino)nicotinamide], in assay [2], the activity at 0.01 µM was 55 to 85% and the activity at 0.1 µM was more than 85%. Moreover, the IC50 in assay [4] is more than 100 nM.

For the origin of these results see patent publication US20260297081A1, “COMPOUNDS AND METHODS OF TREATING CANCERS” (Cullgen Inc., priority 2023, published 2026).
